Measured values from ChEMBL document CHEMBL3779849, “Exploration of the P3 region of PEXEL peptidomimetics leads to a potent inhibitor of the Plasmodium protease, plasmepsin V” (Bioorg Med Chem, 2016).
Active and inactive are the calls of the source. The calls are words filed in the database; no cut-off is given here. Non-standard residues stand in square brackets, D forms with d. Residues, ends and D or L forms follow the SMILES beside them. *: point of attachment. Phe(4-guanidino) = N=C(N)Nc1ccc(C[C@H](N)C(=O)O)cc1; Arg(NO2) = N=C(NCCC[C@H](N)C(=O)O)N[N+](=O)[O-]; Phe(4-NH2) = Nc1ccc(C[C@H](N)C(=O)O)cc1; Sta = CC(C)C[C@H](N)[C@@H](O)CC(=O)O; Arg(Me) = CNC(=N)NCCC[C@H](N)C(=O)O; Cit = NC(=O)NCCC[C@H](N)C(=O)O; NHPhenethyl = c1ccc(CCN*)cc1; Orn = NCCC[C@H](N)C(=O)O; Cbz = O=C(OCc1ccccc1)*; Ms = CS(=O)(=O)*

How the values were obtained:
[1] = Inhibition of 2.5 ng recombinant FLAG-tagged Plasmodium vivax PMV expressed in High Five insect cells assessed as fluorogenic substrate cleavage using 12 uM DABCYL-RNKRTLAQKQ-E-EDANS as fluorogenic substrate after 120 mins by fluorescence plate reader method
Plasmodium falciparum [2] = experiment: Antimalarial activity against ring-stage Plasmodium falciparum 3D7 infected in human erythrocytes assessed as parasite viability after 72 hrs by LDH assay; assay type: functional, organism-based; conditions: 3D7, 72 h
HepG2 = experiment: Cytotoxicity against human HepG2 cells assessed as cell viability after 48 hrs by Cell Titer-Glo assay; assay type: cell-based; conditions: HepG2, 48 h
[3] = Inhibition of 1 ng recombinant FLAG-tagged Plasmodium vivax PMV expressed in High Five insect cells assessed as fluorogenic substrate cleavage using 7.5 uM DABCYL-RNKRTLAQKQ-E-EDANS as fluorogenic substrate after 120 mins by fluorescence plate reader method
[4] = target: Plasmepsin V (Plasmodium falciparum (isolate 3D7)) (UniProt Q8I6Z5); experiment: Inhibition of PMV in trophozoite stage of Plasmodium flaciparum 3D7 expressing PfEMP3-GFP infected in human erythrocytes assessed as PEXEL processing of PfEMP3 at 1 to 20 uM after 5 hrs by Western blot method; assay type: cell-based; conditions: Plasmodium falciparum 3D7
Chain of Plasmepsin V (Plasmodium falciparum (isolate 3D7)) (Q8I6Z5 whole entry, looked up): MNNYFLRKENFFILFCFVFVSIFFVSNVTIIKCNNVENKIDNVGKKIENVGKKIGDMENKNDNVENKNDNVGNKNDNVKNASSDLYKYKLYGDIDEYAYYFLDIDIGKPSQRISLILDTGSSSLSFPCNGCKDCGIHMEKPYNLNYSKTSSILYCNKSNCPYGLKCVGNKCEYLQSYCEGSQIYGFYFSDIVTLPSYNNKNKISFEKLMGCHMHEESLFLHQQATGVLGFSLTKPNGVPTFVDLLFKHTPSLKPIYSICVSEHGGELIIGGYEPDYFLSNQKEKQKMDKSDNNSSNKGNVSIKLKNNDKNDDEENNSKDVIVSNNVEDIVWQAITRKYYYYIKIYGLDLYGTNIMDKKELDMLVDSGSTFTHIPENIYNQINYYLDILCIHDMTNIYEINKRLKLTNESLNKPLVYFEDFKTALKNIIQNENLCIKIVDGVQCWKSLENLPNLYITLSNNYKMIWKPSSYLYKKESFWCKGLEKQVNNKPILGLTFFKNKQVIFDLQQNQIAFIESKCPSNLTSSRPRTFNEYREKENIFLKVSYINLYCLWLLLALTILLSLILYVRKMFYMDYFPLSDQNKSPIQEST

[5] = Ratio of EC50 for ring-stage Plasmodium falciparum 3D7 to IC50 for recombinant FLAG-tagged Plasmodium vivax PMV
Plasmodium falciparum [6] = experiment: Antimalarial activity against Plasmodium falciparum 3D7 infected in human erythrocytes assessed as parasite viability after 72 hrs by flow cytometry; assay type: functional, organism-based; conditions: 3D7, 72 h
Plasmepsin V = Plasmepsin V (Plasmodium falciparum (isolate 3D7), UniProt Q8I6Z5); experiment: Inhibition of Plasmodium falciparum PMV assessed as fluorogenic substrate cleavage using DABCYL-RNKRTLAQKQ-E-EDANS as fluorogenic substrate after 120 mins by fluorescence plate reader method
Chain of Plasmepsin V (Q8I6Z5 whole entry): as the sequence (Q8I6Z5 whole entry, looked up) above

[7] = target: Plasmepsin V (Plasmodium falciparum (isolate 3D7)) (UniProt Q8I6Z5); experiment: Inhibition of PMV in trophozoite stage of Plasmodium flaciparum 3D7 expressing PfEMP3-GFP infected in human erythrocytes assessed as PEXEL processing of PfEMP3 at 20 uM after 5 hrs by Western blot method; assay type: cell-based; conditions: Plasmodium falciparum 3D7

Work on CC(C)C[C@H](NC(=O)[C@@H](NC(=O)[C@H](Cc1ccc(NC(=N)N)cc1)NC(=O)OCc1ccccc1)C(C)C)[C@@H](O)CC(=O)NCCc1ccccc1 (Cbz-[Phe(4-guanidino)]-Val-[Sta]-NHPhenethyl) yielded an IC50 [1] of over 50 µM.
Work on CC(C)C[C@H](NC(=O)[C@@H](NC(=O)[C@H](CCCNC(=N)N[N+](=O)[O-])NC(=O)OCc1ccccc1)C(C)C)[C@@H](O)CC(=O)NCCc1ccccc1 (Cbz-[Arg(NO2)]-Val-[Sta]-NHPhenethyl) yielded an IC50 [1] of over 50 µM.
In the case of CCN(CC)CCCC(C)Nc1ccnc2cc(Cl)ccc12 (stereo not given) [CHLOROQUINE], the EC50 (Plasmodium falciparum [2]) is reported as 0.012 µM.
For CC(C)C[C@H](NC(=O)[C@@H](NC(=O)[C@H](CCC(=O)NC(=N)N)NC(=O)OCc1ccccc1)C(C)C)[C@@H](O)CC(=O)NCCc1ccccc1, the EC50 (HepG2) was over 50 µM, the EC50 (Plasmodium falciparum [2]) was 3.33 µM and the IC50 [1] was 41.6 µM.
In the case of CC(C)C[C@H](NC(=O)[C@@H](NC(=O)[C@H](CCCNS(C)(=O)=O)NC(=O)OCc1ccccc1)C(C)C)[C@@H](O)CC(=O)NCCc1ccccc1 (Cbz-[Orn](Ms)-Val-[Sta]-NHPhenethyl), the IC50 [1] is reported as over 50 µM.
With CC(C)C[C@H](NC(=O)[C@@H](NC(=O)[C@H](CCCNC(C)C)NC(=O)OCc1ccccc1)C(C)C)[C@@H](O)CC(=O)NCCc1ccccc1 the IC50 [1] was over 50 µM.
CC(C)C[C@H](NC(=O)[C@@H](NC(=O)[C@H](CCCNC(N)=O)NC(=O)OCc1ccccc1)C(C)C)[C@@H](O)CC(=O)NCCc1ccccc1 (Cbz-[Cit]-Val-[Sta]-NHPhenethyl) gave an IC50 [1] of over 50 µM.
Work on CC(C)C[C@H](NC(=O)[C@@H](NC(=O)[C@H](CCONC(=N)N)NC(=O)OCc1ccccc1)C(C)C)[C@@H](O)CC(=O)NCCc1ccccc1 yielded an EC50 (HepG2) of over 50 µM, an IC50 [3] of 0.0016 µM and an EC50 (Plasmodium falciparum [2]) of 0.229 µM. For the same compound, the inhibition [4] was “Active”, the Ratio [5] was 25 and the EC50 (Plasmodium falciparum [6]) was 0.4 µM. The IC50 [1] was 0.01 µM and the IC50 (Plasmepsin V) was 0.0008 µM.
CC(C)C[C@H](NC(=O)[C@@H](NC(=O)[C@H](Cc1ccc(N)cc1)NC(=O)OCc1ccccc1)C(C)C)[C@@H](O)CC(=O)NCCc1ccccc1 (Cbz-[Phe(4-NH2)]-Val-[Sta]-NHPhenethyl) gave an IC50 [1] of over 50 µM.
Compound CC(C)C[C@H](NC(=O)[C@@H](NC(=O)[C@H](Cc1cccc(NC(=N)N)c1)NC(=O)OCc1ccccc1)C(C)C)[C@@H](O)CC(=O)NCCc1ccccc1 has an IC50 [1] of over 50 µM.
In the case of CC(=N)NCCC[C@H](NC(=O)OCc1ccccc1)C(=O)N[C@H](C(=O)N[C@@H](CC(C)C)[C@@H](O)CC(=O)NCCc1ccccc1)C(C)C, the EC50 (HepG2) is reported as over 50 µM, the inhibition [7] is reported as “inactive” and the EC50 (Plasmodium falciparum [2]) is reported as 21.4 µM. It also gave an IC50 [1] of 40.3 µM.
With CC(C)C[C@H](NC(=O)[C@@H](NC(=O)[C@H](CCONC(=N)N)NC(=O)OCc1ccccc1)C(C)C)[C@H](O)CC(=O)NCCc1ccccc1 the EC50 (HepG2) was over 50 µM, the inhibition [7] was “inactive” and the EC50 (Plasmodium falciparum [2]) was 5.65 µM. For the same compound, the IC50 [1] was 2.74 µM.
Compound CC(C)C[C@H](NC(=O)[C@@H](NC(=O)[C@H](CCCNC(=N)NC#N)NC(=O)OCc1ccccc1)C(C)C)[C@@H](O)CC(=O)NCCc1ccccc1 has an IC50 [1] of over 50 µM.
For CNC(=N)NCCC[C@H](NC(=O)OCc1ccccc1)C(=O)N[C@H](C(=O)N[C@@H](CC(C)C)[C@@H](O)CC(=O)NCCc1ccccc1)C(C)C (Cbz-[Arg(Me)]-Val-[Sta]-NHPhenethyl), the EC50 (HepG2) was over 50 µM, the EC50 (Plasmodium falciparum [2]) was 12.7 µM and the IC50 [1] was 37.7 µM.
Work on CC(C)C[C@H](NC(=O)[C@@H](NC(=O)[C@H](Cc1cccc(N)c1)NC(=O)OCc1ccccc1)C(C)C)[C@@H](O)CC(=O)NCCc1ccccc1 yielded an IC50 [1] of over 50 µM.
With CC(=O)NCCC[C@H](NC(=O)OCc1ccccc1)C(=O)N[C@H](C(=O)N[C@@H](CC(C)C)[C@@H](O)CC(=O)NCCc1ccccc1)C(C)C (Cbz-[Orn](Ac)-Val-[Sta]-NHPhenethyl) the IC50 [1] was over 50 µM.
For CC(C)C[C@H](NC(=O)[C@@H](NC(=O)[C@H](CCCNC(=N)NO)NC(=O)OCc1ccccc1)C(C)C)[C@@H](O)CC(=O)NCCc1ccccc1, the EC50 (HepG2) was over 50 µM, the inhibition [7] was “inactive” and the EC50 (Plasmodium falciparum [2]) was 3.97 µM. The IC50 [1] was 3.88 µM.
Work on CC(C)C[C@H](NC(=O)[C@@H](NC(=O)[C@H](CCCN(C)C(=N)N)NC(=O)OCc1ccccc1)C(C)C)[C@@H](O)CC(=O)NCCc1ccccc1 yielded an IC50 [1] of over 50 µM.
Compound CONC(=N)NCCC[C@H](NC(=O)OCc1ccccc1)C(=O)N[C@H](C(=O)N[C@@H](CC(C)C)[C@@H](O)CC(=O)NCCc1ccccc1)C(C)C has an EC50 (HepG2) of over 50 µM, an EC50 (Plasmodium falciparum [2]) of 1.97 µM and an IC50 [1] of 18 µM.
For CC(C)C[C@H](NC(=O)[C@@H](NC(=O)[C@H](CCCNC(=N)N)NC(=O)OCc1ccccc1)C(C)C)[C@@H](O)CC(=O)NCCc1ccccc1 (Cbz-Arg-Val-[Sta]-NHPhenethyl), the EC50 (HepG2) was over 50 µM, the inhibition [7] was “Active” and the EC50 (Plasmodium falciparum [2]) was 3.26 µM. It also gave an IC50 [1] of 0.128 µM.
